Assays:
[1] = test system: human skin; experiment: Theophylline permeation through human skin in Franz diffusion cells with co-applied enhancer; assay type: in vitro ADME; conditions: 1% enhancer co-applied with 5% TH in 60% PG; for CDERMIS, theophylline concentration in dermis / CEPIDERMIS, theophylline concentration in epidermis: after 48 h permeation, mean ± SEM; for ER, enhancement ratio of theophylline flux (fold increase in flux over control): human skin in vitro
Experimental: The prepared enhancers were applied at 1% in 60% aqueous propylene glycol (PG) to human skin in vitro; 60% PG was used as a negative control. PG was selected for its synergy with amphiphilic enhancers. Each model drug was co-applied with the enhancer at infinite dose.
(§1) Donor samples for reversibility and infrared studies contained 1% enhancer in 60% PG. All samples were thoroughly mixed, incubated at 32 °C for 24 h, and, if needed, carefully resuspended before applying on the skin. The effects of the studied enhancers on the solubility of model drugs were assessed as described previously.
(§2) The permeation-enhancing potencies of the prepared compounds were evaluated on human skin in Franz diffusion cells. Human skin was slowly thawed, cut into 2 × 2 cm pieces, fixed in Teflon holders with 1-cm^2 circular permeation areas, and mounted into Franz cells epidermal side up. The acceptor compartment (15.9 ± 0.1 ml) was filled with phosphate-buffered saline at pH 7.4 with 0.005% gentamicin (PBS) and stirred at 32 °C throughout the experiment. The skin integrity was checked by electrical impedance (any skin sample with the impedance < 10 kΩ was excluded). Then, 100 µl of a donor sample (infinite dose) was applied to the skin and covered with a glass slide. Acceptor phase samples (300 µl) were collected at predetermined time intervals for 48 h, to reach steady-state and were replaced by the same volume of fresh PBS. […] The drug concentrations were measured by HPLC (see supplementary data).
(§3) The flux of the model drug through the skin Jss (µg/cm^2/h) was calculated from the linear region of this plot. The enhancement ratio (ER) was calculated as the ratio of flux with and without an enhancer.
(§4) After the permeation experiment, the cells were dismounted, the skin was carefully washed with PBS, and the permeation area of the skin (1 cm^2) was punched off. After heating the skin fragments to 80 °C for 1 min, the epidermis (E) was peeled off the dermis (D), individually weighed and extracted by 1 and 2 ml, respectively, of an extraction solvent (identical to the mobile phase for the drug HPLC analysis, see supplementary data) for 24 h. The drug concentration was measured by HPLC (see supplementary data).

[2] = test system: human skin; experiment: Diclofenac permeation through human skin in Franz diffusion cells with co-applied enhancer; assay type: in vitro ADME; conditions: for CDERMIS, diclofenac concentration in dermis / CEPIDERMIS, diclofenac concentration in epidermis: 1% enhancer co-applied with 3% DC in 60% PG, after 48 h permeation, mean ± SEM
Experimental: as §1, §2, §3, §4

[3] = test system: 3T3 mouse fibroblasts; experiment: Neutral red (NR) uptake cell viability assay, 3T3; assay type: cell-based; conditions: NIH3T3, 48-h incubation, read-out: IC50, 3T3 cells, NR assay
Source text: (§5) Next, the in vitro toxicities of the most promising enhancers Pro3 and Pro4, along with the parent Pro2, on spontaneously immortalized human keratinocytes (HaCaT) and Swiss albino mouse embryonic fibroblasts (3T3) were studied (Fig. 3). […] The cellular toxicities were further probed using the 3-(4,5-dimethylthiazol-2-yl)-2,5-diphenyltetrazolium bromide (MTT) uptake assay, based on the transformation of yellow MTT into purple formazan by mitochondrial reductases of living cells. The MTT assay also yielded toxicity values in tens of µM with trends to higher toxicity with a longer acyl chain length (thus also higher lipophilicity) of enhancers (Fig. 3).
(§6) Cell viability was determined via 3-(4,5-dimethylthiazol-2-yl)-2,5-diphenyltetrazolium bromide (MTT) and neutral red (NR) uptake assays after 48-h incubation with the enhancers (see Supplementary data for details).
(§7) Both cell lines were cultivated in Dulbecco’s modified Eagle’s medium (DMEM, Lonza, Basel, Switzerland) supplemented with 10% heat-inactivated fetal bovine serum (Merck, Darmstadt, Germany), 10 mM HEPES buffer (Merck, Darmstadt, Germany), and 1% penicillin/streptomycin solution (Lonza, Basel, Switzerland) in 75-cm^2 tissue culture flasks (TPP, Trasadingen, Switzerland) at 37°C in a humidified atmosphere of 5% CO2. Subconfluent cells were sub-cultured every 3-4 days.
For toxicity studies, the stock-solutions of studied compounds were prepared in dimethyl sulfoxide (DMSO). These stock samples were diluted to the required concentration by the cell culture medium immediately before adding them onto the cells. The amount of DMSO applied to the cells was kept under its intrinsic measurable toxicity limit (below 1 vol.%). […]
Another approach used for the toxicity assessment was the neutral red (NR) uptake assay. […] The plates were shaken at rt for 30 min, and the optical density of the soluble NR was measured at λ = 540 nm using a Tecan Infinite 200 M plate reader.
(§8) The viability of each experimental group was expressed as the percentage of the untreated controls incubated under the same conditions (100%).

[4] = test system: 3T3 mouse fibroblasts; experiment: MTT cell viability assay, 3T3; assay type: cell-based; conditions: NIH3T3, 48-h incubation, mean ± SEM, read-out: IC50, 3T3 cells, MTT assay
Source text: as §5, §6, §7
For toxicity studies, the stock-solutions of studied compounds were prepared in dimethyl sulfoxide (DMSO). […]
After 48-h incubation with the studied enhancer, cell viability was determined via 3-(4,5-dimethylthiazol-2-yl)-2,5-diphenyltetrazolium bromide (MTT) uptake assay based on the transformation of yellow MTT into purple formazan by mitochondrial reductase activity of living cells. […] Afterward, the cell viability was assessed by optical density measurement using a Tecan Infinite 200 M plate reader (Tecan, Grödig, Austria) at λ = 570 nm.
as §8

[5] = 1% enhancer with 3% DC in 60% PG

Row | SMILES | CDERMIS, theophylline concentration in dermis [1] [µg/mg] | CEPIDERMIS, theophylline concentration in epidermis [1] [µg/mg] | ER, enhancement ratio of theophylline flux (fold increase in flux over control) [1] | CDERMIS, diclofenac concentration in dermis [2] [µg/mg] | CEPIDERMIS, diclofenac concentration in epidermis [2] [µg/mg] | IC50 [3] [µM] | IC50 [4] [µM] | fold increase of DC retention in dermis over control [2, 5] | fold increase of DC retention in epidermis over control [2, 5] [fold]
1 | CCCCCCCCCCCCOC(=O)C1CCCN1C(C)=O (centres unmarked) [Pro2, N-acetyl proline dodecyl ester] | 0.37 ± 0.02 | 1.04 ± 0.11 | 28 | 1.08 ± 0.09 | 7.16 ± 0.79 | 84.09 ± 0.49 | 92.4 ± 2.82 |  | 
2 | CCCCCCCCCCCCOC(=O)C1CCCN1C(=O)CCC (centres unmarked) [Pro4] | 0.25 ± 0.01 | 0.83 ± 0.08 | 25 | 1.71 ± 0.31 | 12.70 ± 2.71 | 56.8 ± 2.45 | 63.9 ± 1.91 | fourfold | 3
3 | CCCCCCCCCCCCOC(=O)C1CCCN1C(=O)CC (centres unmarked) [Pro3] | 0.32 ± 0.03 | 1.11 ± 0.17 | 31 | 1.54 ± 0.28 | 11.18 ± 2.39 | 57.2 ± 2.58 | 84.4 ± 1.5 |  | 

From publication PMC9663686, “Proline, hydroxyproline, and pyrrolidone carboxylic acid derivatives as highly efficient but reversible transdermal permeation enhancers” (Scientific Reports, 2022)
